Starred links: 1 amine or outer side, 2 acyl side, 3 side chain; linkers in the order of their positions; H or OH if unused. Positions of bridges follow the written chain, without caps; N, C: chain ends. Residues, ends and D or L forms follow the SMILES beside them. *: point of attachment. C18 diacid = O=C(O)CCCCCCCCCCCCCCCCC(=O)*; γGlu = O=C(O)[C@H](CCC(=O)[*:2])N[*:1]; AEEA = NCCOCCOCC(=O)O
Assay: Local tolerance of CNP compounds in rats (s.c. injection, histopathology)
Type: in vivo, Sprague Dawley rat
Settings: for assessment for human subcutaneous administration: based on rat local tolerance
Procedure: The purpose of this study was to evaluate the local tissue reaction to subcutaneous injection of CNP compounds in rats.
Procedure: The CNP compounds were formulated according to the principles described in General Methods of Preparation-Method G. Each Sprague Dawley rat (male, 10-11 weeks of age at arrival, Janvier, France) was dosed s.c. with 250 or 350 uL of the same compound (formulation concentration of 1000 nmol/mL) 120 h prior to tissue collection resulting in a total of two injections for each animal (Table 15). Injection site (flank or neck) was alternated across animals within each group and time point.
Animals had access to tap water and food (Altromin 1324) ad libitum. Group size was n=3 for vehicles and positive control, and n=4 for test compounds. Vehicles and compounds were formulated in either 5 mM sodium acetate, 250 mM glycerol, pH 4.0 or 8 mM sodium phosphate, 250 mM glycerol, pH 7.4 as shown in Table 16.
The animals were anesthetized with isoflurane. Via an electric shaving machine, a squared area of fur (2 cm×2 cm) was removed either from the rats' neck or flank area). For dosing, a new injection needle (25G canula, 1 ml syringe) was placed in the middle of the square border closest to the animal's head and the needle was inserted into the skin from the border towards the center of the square. […] On the day of tissue collection, the rats were deeply anaesthetized with isoflurane and euthanized by exsanguination. The injection sites were inspected and scored with regards to pathological lesions. The injection sites were evaluated, and any changes were noted (location, colour, shape and size), and sampled for histology preparation.
The injection sites were removed and fixed in 4% phosphate buffered neutral formaldehyde in sealed plastic containers.
Each injection site was subsequently cut into three sections 0.8 cm, 1.0 cm and 1.2 cm from the square border where the injection needle was placed, and, respectively, these sections represented the injection sites and the adjacent tissue. The tissue was processed, embedded in paraffin and cut in 2-4 μm thin sections, stained with the haematoxylin and eosin (H&E), and evaluated microscopically with a light microscope. Histopathological changes were graded on a 5-level scale (Minimal (Min), Mild (Mil), Moderate (Mod), Marked (Mar) and Severe (Sev)).

[1] = 5 days after subcutaneous injections in the rat

SMILES | local subcutaneous necrosis (rat, in vivo, sc) | local subcutaneous necrosis [1] | assessment for human subcutaneous administration
CC[C@H](C)[C@@H]1NC(=O)[C@H](CCCNC(=N)N)NC(=O)[C@H](CCC(=O)O)NC(=O)[C@H](CC(C)C)NC(=O)[C@H](CCCCN)NC(=O)[C@H](CC(C)C)NC(=O)CNC(=O)[C@H](Cc2ccccc2)NC(=O)[C@@H](NC(=O)CNC(=O)[C@H](CCCCN)NC(=O)[C@H](CO)NC(=O)[C@H](CC(C)C)NC(=O)CNC(=O)[C@H](CCCCN)NC(=O)[C@H](CCCCN)NC(=O)[C@H](CCC(N)=O)NC(=O)[C@H](C)NC(=O)CNC(=O)[C@H](CCCCN)NC(=O)[C@H](Cc2ccc(O)cc2)NC(=O)[C@H](CCCCN)NC(=O)[C@H](CCCNC(=N)N)NC(=O)[C@H](C)NC(=O)COCCOCCNC(=O)COCCOCCNC(=O)CC[C@H](NC(=O)CCCCCCCCCCCCCCCCC(=O)O)C(=O)O)CSSC[C@@H](C(=O)O)NC(=O)CNC(=O)[C@H](CC(C)C)NC(=O)CNC(=O)[C@H](CO)NC(=O)[C@H](CC(C)C)NC(=O)[C@H](CO)NC(=O)CNC1=O [compound 0776] ({C18 diacid-γGlu-AEEA-AEEA}-ARKYKGAQKKGLSKGCFGLKLERIGSLSGLGC-OH; disulfide 16-32) | moderate to marked | – | –
CC[C@H](C)[C@@H]1NC(=O)[C@H](CCCNC(=N)N)NC(=O)[C@H](CC(=O)O)NC(=O)[C@H](CC(C)C)NC(=O)[C@@H]2CCCN2C(=O)[C@H](CC(C)C)NC(=O)CNC(=O)[C@H](Cc2ccccc2)NC(=O)[C@@H](NC(=O)CNC(=O)[C@H](CO)NC(=O)[C@H](CO)NC(=O)[C@@H](NC(=O)CNC(=O)[C@@H](NC(=O)[C@H](Cc2c[nH]cn2)NC(=O)[C@H](CCC(N)=O)NC(=O)[C@H](C)NC(=O)CNC(=O)[C@H](Cc2c[nH]cn2)NC(=O)[C@H](Cc2ccc(O)cc2)NC(=O)[C@H](CCCCN)NC(=O)[C@H](CCCNC(=N)N)NC(=O)[C@H](C)NC(=O)COCCOCCNC(=O)COCCOCCNC(=O)CC[C@H](NC(=O)CCCCCCCCCCCCCCCCC(=O)O)C(=O)O)[C@@H](C)O)C(C)C)CSSC[C@@H](C(=O)O)NC(=O)CNC(=O)[C@H](CC(C)C)NC(=O)CNC(=O)[C@H](CO)NC(=O)[C@H](CC(C)C)NC(=O)[C@H](CO)NC(=O)CNC1=O [compound 1351] ({C18 diacid-γGlu-AEEA-AEEA}-ARKYHGAQHTGVSSGCFGLPLDRIGSLSGLGC-OH; disulfide 16-32) | – | no or mild | acceptable
CC[C@H](C)[C@@H]1NC(=O)[C@H](CCCNC(=N)N)NC(=O)[C@H](CC(=O)O)NC(=O)[C@H](CC(C)C)NC(=O)[C@@H]2CCCN2C(=O)[C@H](CC(C)C)NC(=O)CNC(=O)[C@H](Cc2ccccc2)NC(=O)[C@@H](NC(=O)CNC(=O)[C@H](CCCCN)NC(=O)[C@H](CO)NC(=O)[C@@H](NC(=O)CNC(=O)[C@@H](NC(=O)[C@H](Cc2c[nH]cn2)NC(=O)[C@H](CCC(N)=O)NC(=O)[C@H](C)NC(=O)CNC(=O)[C@H](Cc2c[nH]cn2)NC(=O)[C@H](Cc2ccc(O)cc2)NC(=O)[C@H](CCCCN)NC(=O)[C@H](CCCNC(=N)N)NC(=O)[C@H](C)NC(=O)COCCOCCNC(=O)COCCOCCNC(=O)CC[C@H](NC(=O)CC[C@H](NC(=O)CC[C@H](NC(=O)CCCCCCCCCCCCCCCCC(=O)O)C(=O)O)C(=O)O)C(=O)O)[C@@H](C)O)C(C)C)CSSC[C@@H](C(=O)O)NC(=O)CNC(=O)[C@H](CC(C)C)NC(=O)CNC(=O)[C@H](CO)NC(=O)[C@H](CC(C)C)NC(=O)[C@H](CO)NC(=O)CNC1=O [compound 1420] ({C18 diacid-γGlu-γGlu-γGlu-AEEA-AEEA}-ARKYHGAQHTGVSKGCFGLPLDRIGSLSGLGC-OH; disulfide 16-32) | – | no or mild | acceptable
